One assay deals with HIV pNL4-3 (subtype B). The experiment in a line: Antiviral activity in HIV-infected MT-4 cells (MTT cellular viability). To be noted: MOI 0.002, MTT staining at the sixth day, ritonavir as internal control. The assay is classed as cell-based. The protocol:
The anti-HIV activity of the compound of the present invention was determined using MT-4 cells, a lymphocytic cell line established in culture, CD4^+, and expressing HIV-1 […] co-receptors. The cells were infected using a plate having 96 wells containing 10^4 cells/well. The cells were infected with MOI (Multiplicity Of Infection) of 0.002 (NIH requirement=0.001 to 0.01). The drugs were initially diluted in dimethyl sulfoxide (DMSO) to a final concentration of 20 mM and later in RPMI 1640 base medium to a concentration of 200 μM. […] The culture medium utilized for this procedure was RPMI 1640 including 10% bovine fetal serum, antibiotics […]/penicillin and L-glutamine. The most concentrated well has a final concentration of 10.000 μM being followed by the indicated dilutions: 2.0 μM; 0.400 μM; 0.0800 μM; 0.016 μM; 0.0032 μM; 0.00064 μM and 0.000128 μM. The ninth well is considered as the infection control, without adding the drug. Each line having […] infected wells is produced in triplicate for later statistics analyses. […]
The infection test is maintained in an incubator having 5% of CO2 at 37° C. and monitored daily using phase optical microscopy method to verify appearance of syncytia (multinuclear cells). […]

For the next assay, the system named is HIV. The following applies: anti-HIV activity test, values as described in U.S. Pat. No. 5,541,206; cited from earlier work.

As to `CC(C)c1nc(CN(C)C(=O)N[C@H](C(=O)N[C@@H](Cc2ccccc2)C[C@H](O)[C@H](Cc2ccccc2)NC(=O)[C@@H](NC(=O)N(C)Cc2csc(C(C)C)n2)C(C)C)C(C)C)cs1` [example 1C, (2S,3S,5S)-2,5-bis-[N—[N—[[N-methyl-N-[(2-isopropyl-4-thiazolyl)methyl]amino]carbonyl]valinyl]amino]-1,6-diphenyl-3-hydroxyhexane], the “anti-HIV activity (EC50, FIG. 2) in comparison with ritonavir and analogs” value in the assay with HIV pNL4-3 (subtype B) was “surprisingly superior activity”. For orientation: IC50 means the concentration at which inhibition is half-maximal. Consider `CC(C)c1nc(CN(C)C(=O)NC(C(=O)NC(Cc2ccccc2)CC(O)C(Cc2ccccc2)NC(=O)OCc2cnc(C(C)C)s2)C(C)C)cs1` (stereo not shown) [example 45C], for which the IC50 with HIV was 36 to 40 nM. As to `CC(C)Cc1nc(CN(C)C(=O)N[C@H](C(=O)N[C@@H](Cc2ccccc2)C[C@H](O)[C@H](Cc2ccccc2)NC(=O)OCc2cncs2)C(C)C)cs1` [example 59G], the half-maximal inhibitory concentration (IC50) with HIV is 110 to 130 nM.

Consider `CC(C)c1nc(CN(C)C(=O)NC(C(=O)NC(Cc2ccccc2)CC(O)C(Cc2ccccc2)NC(=O)OCc2cncs2)C(C)C)cs1` [ritonavir, (2S,3S,5S)-5-[N—[N—[[N-methyl-N-[(2-isopropyl-4-thiazolyl)methyl]amino]carbonyl]vanilyl]amino-2-[N [(5-thiazolyl)methoxycarbonyl]amino-1,6-diphenyl-3-hydroxyhexane], for which, in the assay with HIV, the IC50 was 25 to 40 nM.

Values taken from patent US7763733B2, “Ritonavir analogous compound useful as retroviral protease inhibitor, preparation of the ritonavir analogous compound and pharmaceutical composition for the ritonavir analogous compound” (Cristalia Produtos Quimicos Farmaceuticos Ltda., priority 2004, dated 2010).
